“And” between values parts separate entries of the source, which are not always exact repeats. Equal entries are not always repeated.
Columns and labels:
Assay in all cases: normalised viability (% of control), CellTiter-Blue; higher = more viable cells (about 100 = DMSO control)
Conditions in all cases: incubation time: 72 h
CAL-85-1 = system: CAL-85-1
Procedure: (§1)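 DSRT, CellTiter-Blue viability, 72 h incubation. Signal is normalised to DMSO and benzethonium chloride controls. Value is the normalised response at dose 6.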

HDQ-P1 = system: HDQ-P1
Procedure: as §1

CAL-51 = system: CAL-51
Procedure: as §1

MDA-MB-453 = system: MDA-MB-453
Procedure: as §1

CAL-148 = system: CAL-148
Procedure: as §1

DU-4475 = system: DU-4475
Procedure: as §1

| Compound | normalised viability (CAL-85-1) | normalised viability (HDQ-P1) | normalised viability (CAL-51) | normalised viability (MDA-MB-453) | normalised viability (CAL-148) | normalised viability (DU-4475) |
| --- | --- | --- | --- | --- | --- | --- |
| Cc1cc(Nc2cc(CN3CCOCC3)c3nc(C)c(Cc4ccc(Cl)cc4F)n3n2)n[nH]1 (300 nM) | 103% | 45.8% | 90.5% | 63.9% | 89.3% | 104% |
| N#Cc1ccc(COC[C@H]2O[C@@H](n3c(NCc4ccc(Cl)c(Cl)c4)nc4c(N)ncnc43)[C@H](O)[C@@H]2O)cc1 (300 nM) | 96.9% | 67% | 117% | 112% | 110% | 91.7% |
| COc1cc(OC2CCN(C)CC2)ccc1Nc1ncc2c(n1)n(C1CCCC1)c(=O)n2C [AZ 3146] (300 nM) | 109% | 76.6% | 87.6% | 97.2% | 115% | 115% |
| CN(C)c1nc(N(C)C)nc(N(C)C)n1 [Altretamine] (300 nM) | 95.9% | 88.5% | 108% | 112% | 112% | 110% |
| COC(=O)c1ccc2c(c1)NC(=O)/C2=C(\Nc1ccc(N(C)C(=O)CN2CCN(C)CC2)cc1)c1ccccc1 [BIBF 1120] (300 nM) | 111% | 100% | 93.9% | 105% | 96.1% | 91.9% |
| Nc1cc(C(F)(F)F)c(-c2cc(N3CCOCC3)nc(N3CCOCC3)n2)cn1 [BKM-120] (300 nM) | 81.2% | 71.9% | 78.4% | 71.2% | 92.5% | 102% |
| O=C(/C=C/c1cccc(S(=O)(=O)Nc2ccccc2)c1)NO [Belinostat] (300 nM) | 72.5% | 26.6% | 105% | 16.9% | 49.3% | 59.2% |
| O=P1(N(CCCl)CCCl)NCCCO1 (stereo not given) [Cyclophosphamide] (1200 nM) | 108% | 81.5% | 106% | 112% | 107% | 96.2% |
| C=C1C[C@@H]2[C@H](CC[C@]3(C)C(=O)CC[C@@H]23)[C@@]2(C)C=CC(=O)C=C12 [Exemestane] (300 nM) | 88.5% | 78% | 97.1% | 90.8% | 87% | 81.7% |
| COc1cc2ncnc(Nc3ccc(F)c(Cl)c3)c2cc1OCCCN1CCOCC1 [Gefitinib] (300 nM) | 69.8% and 65.9% | 64% and 66.2% | 104% and 106% | 98.2% and 83.2% | 95.6% and 84.7% | 83.8% and 84.4% |
| O=C(Nc1ccncc1)C(=O)c1cn(Cc2ccc(Cl)cc2)c2ccccc12 [Indibulin] (300 nM) | 55.8% | 30.7% | 71.3% | 41.4% | 95.7% | 115% |
| NC(=O)c1ccc(I)c([N+](=O)[O-])c1 [Iniparib] (300 nM) | 88.8% | 87.2% | 98.7% | 95.2% | 89.2% | 84% |
| CCc1c2c(nc3ccc(OC(=O)N4CCC(N5CCCCC5)CC4)cc13)-c1cc3c(c(=O)n1C2)COC(=O)[C@]3(O)CC [Irinotecan] (300 nM) | 81.2% and 99.8% | 64.5% and 88.1% | 101% and 105% | 97.6% and 103% | 82.5% and 96.9% | 74.1% and 85.6% |
| Oc1ccc2c(c1)CC[C@H](c1ccccc1)[C@@H]2c1ccc(OCCN2CCCC2)cc1 [Lasofoxifene] (30 nM) | 100% | 60.8% | 106% | 116% | 116% | 93% |
| Cc1ccc(NC(=O)c2ccc(CN3CCN(C)CC3)cc2)cc1Nc1nc(-c2cccnc2)cs1 [Masitinib] (300 nM) | 90.4% | 68.5% | 98.2% | 88.5% | 84.7% | 98.7% |

Source: the supplement of paper PMC4862054
